Measurements reported in US20190124918A1, “BIOFILM FORMATION INHIBITOR AND BIOFILM FORMATION INHIBITING COMPOSITION” (KAO CORPORATION, priority 2016, published 2019).

Columns and labels:
[1] = tested on: Pseudomonas PAO1 strain (ATCC 15692); experiment: Growth of test microbe (turbidity OD600), 96-well microplate culture; type: cell-based; conditions: for inhibition at 101 ppm: final concentration 101 ppm; for inhibition at 5 ppm: final concentration 5 ppm; for inhibition at 9 ppm: final concentration 9 ppm; for inhibition at 18 ppm: final concentration 18 ppm; for inhibition at 27 ppm: final concentration 27 ppm; for inhibition at 32 ppm: final concentration 32 ppm; for inhibition at 37 ppm: final concentration 37 ppm
Experimental: (§1) Pseudomonas PAO1 strain (ATCC 15692) was subjected to stationary culture performed in LB culture medium (Lysogeny Broth; manufactured by Becton Dickinson) at 37° C. for 24 hours. The turbidity (OD600) of the culture solution was measured. The culture solution was diluted with Mueller Hinton Broth (BBL made) to prepare a suspension (15 mL) having a turbidity (OD600) of 1/10^6.
To each of the wells of a 96-well microplate (351172; manufactured by Japan Becton Dickinson), 6 μL of DMSO (Tokyo Chemical Industry Co. Ltd) and an ethanol solution (1 μL, 3 μL or 5 μL) of a test compound were added. After that, the microplate was allowed to stand still at room temperature for 5 hours to evaporate ethanol. The suspension of Pseudomonas microbe prepared in the above step 1) was added in an amount of 145 μL per well and culture was initiated. As the test compound, 2-methylhydroquinone (Sigma Aldrich) and p-toluquinone (Tokyo Kasei) were used. As a reference compound, sodium hypochlorite (manufactured by Wako Pure Chemical Industries Ltd.) was used. As a control, an ethanol solvent (EtOH control) alone was used. The concentration of the test compound in the ethanol solution is 1,000 ppm or 10,000 ppm and the final concentration of the test compound in the culture solution was about from 7 to 333 ppm.
(§2) After the 96-well microplate was subjected to stationary culture performed at 30° C. for 24 hours, turbidity (OD600) was measured to check growth. Subsequently, individual wells were stained with 0.1% crystal violet and thoroughly washed twice with physiological saline. To each well, 200 μL of ethanol was added and the absorbance (OD570) was measured to obtain the amount of the biofilm formed.
Compounds listed in Table 3 were each added to a test microbe and culture was conducted by the same procedure as in Test Example 1 and the amount of growth (OD600) and the amount of biofilm formed (OD570) were measured. For compounds a, b, c, f, h, i, J and k, 20 mM ethanol solutions were prepared; whereas for compounds d, e, g, 5 mM ethanol solutions were prepared. The solutions were each added to a 96-well microplate in an amount of 1 to 8 μL and evaluation was made. The final concentrations of the individual compounds are described in Table 3.
(§3) Growth inhibition rates relative to the control (ethanol alone) were calculated based on OD600 values measured and in accordance with the following expression. In addition, biofilm (BF) formation inhibition rates relative to the control (ethanol alone) were calculated based on OD570 values and in accordance with the following expression:
Growth inhibition (%)=(1−(compound addition group OD600/control group OD600))×100
(§4) As a control, an ethanol solvent alone was used (EtOH control). The concentrations of test compounds in the ethanol solution were as follows: test compound 1: 20 mM, test compounds 2 to 7: 100 mM. To each of the wells of a 96-well microplate (351172; manufactured by Japan Becton Dickinson), 6 μL of DMSO (Tokyo Kasei) and an ethanol solution of each test compound (1 to 8 μL) were added and then the microplates were allowed to stand still at room temperature for 5 hours to evaporate ethanol. A suspension solution of a Pseudomonas microbe prepared in the same procedure as in Test Example 1, 1) was added in an amount of 145 μL per well and culture was initiated.
as §2, with “culture” for “culture performed”, “formed. The growth inhibition rate and biofilm (BF) formation inhibition rate were calculated based on OD600 and OD570 values measured and in accordance with the expressions used in Test Example 2.” for “formed.”

[2] = tested on: Pseudomonas PAO1 strain (ATCC 15692); experiment: Amount of biofilm formed (crystal violet, OD570), 96-well microplate culture; type: cell-based; conditions: for inhibition at 101 ppm: final concentration 101 ppm; for inhibition at 5 ppm: final concentration 5 ppm; for inhibition at 9 ppm: final concentration 9 ppm; for inhibition at 18 ppm: final concentration 18 ppm; for inhibition at 27 ppm: final concentration 27 ppm; for inhibition at 32 ppm: final concentration 32 ppm; for inhibition at 37 ppm: final concentration 37 ppm
Experimental: as §1, with “1/10^6. […]” for “1/10^6.”
as §3
BF inhibition (%)={1−(compound addition group OD570/control group OD570)}×100
as §4
as §2, with “culture” for “culture performed”, “formed. The growth inhibition rate and biofilm (BF) formation inhibition rate were calculated based on OD600 and OD570 values measured and in accordance with the expressions used in Test Example 2.” for “formed.”

[3] = final concentration 7 ppm, EtOH control 0.5913
[4] = final concentration 20 ppm, EtOH control 0.6346
[5] = final concentration 33 ppm, EtOH control 0.668
[6] = final concentration 67 ppm, EtOH control 0.628
[7] = final concentration 200 ppm, EtOH control 0.6045
[8] = final concentration 333 ppm, EtOH control 0.6088
[9] = high concentration range of 200 ppm or more
[10] = final concentration 7 ppm, EtOH control 0.9163
[11] = final concentration 20 ppm, EtOH control 0.9564
[12] = final concentration 33 ppm, EtOH control 0.8974
[13] = final concentration 67 ppm, EtOH control 0.8853
[14] = final concentration 200 ppm, EtOH control 0.9248
[15] = final concentration 333 ppm, EtOH control 0.9562
[16] = Pseudomonas, read-out: BF inhibition (%)
[17] = Pseudomonas, read-out: Growth inhibition (%)

Cc1cc(O)ccc1O [b, 2-Methylhydroquinone]
inhibition at 16 ppm ([1]; Pseudomonas, final concentration 16 ppm): 31.2% | inhibition at 33 ppm ([1]; Pseudomonas, final concentration 33 ppm): < 0% | inhibition at 65 ppm ([1]; Pseudomonas, final concentration 65 ppm): 4% | inhibition at 98 ppm ([1]; Pseudomonas, final concentration 98 ppm): < 0% | inhibition at 114 ppm ([1]; Pseudomonas, final concentration 114 ppm): 1.5% | inhibition at 130 ppm ([1]; Pseudomonas, final concentration 130 ppm): 0% | Growth OD600 [1, 3]: 0.6114 | Growth OD600 [1, 4]: 0.6276 | Growth OD600 [1, 5]: 0.6291 | Growth OD600 [1, 6]: 0.471 | Growth OD600 [1, 7]: 0.3373 | Growth OD600 [1, 8]: 0.4302 | microbial growth (in words) [1, 9]: inhibited | inhibition at 16 ppm ([2]; Pseudomonas, final concentration 16 ppm, read-out: BF inhibition (%)): 51.4% | inhibition at 33 ppm ([2]; Pseudomonas, final concentration 33 ppm, read-out: BF inhibition (%)): 42.5% | inhibition at 65 ppm ([2]; Pseudomonas, final concentration 65 ppm, read-out: BF inhibition (%)): 76.5% | inhibition at 98 ppm ([2]; Pseudomonas, final concentration 98 ppm, read-out: BF inhibition (%)): 87.3% | inhibition at 114 ppm ([2]; Pseudomonas, final concentration 114 ppm, read-out: BF inhibition (%)): 95.2% | inhibition at 130 ppm ([2]; Pseudomonas, final concentration 130 ppm, read-out: BF inhibition (%)): 96.2% | The amount of the biofilm formed OD570 [2, 10]: 0.7615 | The amount of the biofilm formed OD570 [2, 11]: 0.7848 | The amount of the biofilm formed OD570 [2, 12]: 0.739 | The amount of the biofilm formed OD570 [2, 13]: 0.5875 | The amount of the biofilm formed OD570 [2, 14]: 0.0566 | The amount of the biofilm formed OD570 [2, 15]: 0.0744 | biofilm formation (in words) [2, 9]: inhibited | biofilm formation (in words) ([2]; low concentration range of less than 200 ppm): inhibited

Oc1ccc(O)c(O)c1 [h, Hydroxyhydroquinone]
inhibition at 17 ppm ([1]; Pseudomonas, final concentration 17 ppm): 46.2% | inhibition at 34 ppm ([1]; Pseudomonas, final concentration 34 ppm): 18% | inhibition at 67 ppm ([1]; Pseudomonas, final concentration 67 ppm): 7.2% | inhibition at 101 ppm ([1]; Pseudomonas): 1.7% | inhibition at 118 ppm ([1]; Pseudomonas, final concentration 118 ppm): 2% | inhibition at 134 ppm ([1]; Pseudomonas, final concentration 134 ppm): 5.4% | inhibition at 17 ppm ([2]; Pseudomonas, final concentration 17 ppm, read-out: BF inhibition (%)): 78.2% | inhibition at 34 ppm ([2]; Pseudomonas, final concentration 34 ppm, read-out: BF inhibition (%)): 96.2% | inhibition at 67 ppm ([2]; Pseudomonas, final concentration 67 ppm, read-out: BF inhibition (%)): 96.1% | inhibition at 101 ppm [2, 16]: 96.3% | inhibition at 118 ppm ([2]; Pseudomonas, final concentration 118 ppm, read-out: BF inhibition (%)): 96.3% | inhibition at 134 ppm ([2]; Pseudomonas, final concentration 134 ppm, read-out: BF inhibition (%)): 96.4%

CC(C)c1ccc(O)cc1O [Compound 7, 4-Isopropylresorcinol]
inhibition at 101 ppm ([1]; Pseudomonas, Test Example 3): < 0% | inhibition at 203 ppm ([1]; Pseudomonas, Test Example 3, final concentration 203 ppm): 5.7% | inhibition at 405 ppm ([1]; Pseudomonas, Test Example 3, final concentration 405 ppm): < 0% | inhibition at 608 ppm ([1]; Pseudomonas, Test Example 3, final concentration 608 ppm): 4.8% | inhibition at 709 ppm ([1]; Pseudomonas, Test Example 3, final concentration 709 ppm): 19.5% | inhibition at 810 ppm ([1]; Pseudomonas, Test Example 3, final concentration 810 ppm): 40.2% | inhibition at 101 ppm ([2]; Pseudomonas, Test Example 3, read-out: BF inhibition (%)): < 0% | inhibition at 203 ppm ([2]; Pseudomonas, Test Example 3, final concentration 203 ppm, read-out: BF inhibition (%)): < 0% | inhibition at 405 ppm ([2]; Pseudomonas, Test Example 3, final concentration 405 ppm, read-out: BF inhibition (%)): < 0% | inhibition at 608 ppm ([2]; Pseudomonas, Test Example 3, final concentration 608 ppm, read-out: BF inhibition (%)): 29.1% | inhibition at 709 ppm ([2]; Pseudomonas, Test Example 3, final concentration 709 ppm, read-out: BF inhibition (%)): 29.3% | inhibition at 810 ppm ([2]; Pseudomonas, Test Example 3, final concentration 810 ppm, read-out: BF inhibition (%)): 21%

OCl [Sodium hypochlorite, sodium hypochlorite, reference compound]
microbial growth (in words) ([1]; Test Example 1, 7 to 333 ppm): inhibited | Growth OD600 [1, 3]: 0.5938 | Growth OD600 [1, 4]: 0.4966 | Growth OD600 [1, 5]: 0.4445 | Growth OD600 [1, 6]: 0.4585 | Growth OD600 [1, 7]: 0.3016 | Growth OD600 [1, 8]: 0.2758 | biofilm formation (in words) ([2]; Test Example 1, 7 to 333 ppm): inhibited | The amount of the biofilm formed OD570 [2, 10]: 0.9918 | The amount of the biofilm formed OD570 [2, 11]: 0.9042 | The amount of the biofilm formed OD570 [2, 12]: 0.7879 | The amount of the biofilm formed OD570 [2, 13]: 0.7277 | The amount of the biofilm formed OD570 [2, 14]: 0.7579 | The amount of the biofilm formed OD570 [2, 15]: 0.4967

CC(C)(C)C1=CC(=O)C=CC1=O [k, tert-Butylbenzoquinone]
inhibition at 22 ppm ([1]; Pseudomonas, final concentration 22 ppm): 8.9% | inhibition at 44 ppm ([1]; Pseudomonas, final concentration 44 ppm): < 0% | inhibition at 88 ppm ([1]; Pseudomonas, final concentration 88 ppm): < 0% | inhibition at 131 ppm ([1]; Pseudomonas, final concentration 131 ppm): < 0% | inhibition at 154 ppm ([1]; Pseudomonas, final concentration 154 ppm): < 0% | inhibition at 175 ppm ([1]; Pseudomonas, final concentration 175 ppm): < 0% | inhibition at 22 ppm ([2]; Pseudomonas, final concentration 22 ppm, read-out: BF inhibition (%)): < 0% | inhibition at 44 ppm ([2]; Pseudomonas, final concentration 44 ppm, read-out: BF inhibition (%)): < 0% | inhibition at 88 ppm ([2]; Pseudomonas, final concentration 88 ppm, read-out: BF inhibition (%)): < 0% | inhibition at 131 ppm ([2]; Pseudomonas, final concentration 131 ppm, read-out: BF inhibition (%)): < 0% | inhibition at 154 ppm ([2]; Pseudomonas, final concentration 154 ppm, read-out: BF inhibition (%)): 26.2% | inhibition at 175 ppm ([2]; Pseudomonas, final concentration 175 ppm, read-out: BF inhibition (%)): 30.3%

Cc1cc(O)cc(C)c1O [d, 2,6-Dimethylhydroquinone]
inhibition at 5 ppm ([1]; Pseudomonas): < 0% | inhibition at 9 ppm ([1]; Pseudomonas): 6.3% | inhibition at 18 ppm ([1]; Pseudomonas): 0.8% | inhibition at 27 ppm ([1]; Pseudomonas): 6.6% | inhibition at 32 ppm ([1]; Pseudomonas): 14% | inhibition at 37 ppm ([1]; Pseudomonas): 5.4% | inhibition at 5 ppm [2, 16]: 12.7% | inhibition at 9 ppm [2, 16]: 11.2% | inhibition at 18 ppm [2, 16]: < 0% | inhibition at 27 ppm [2, 16]: 6.3% | inhibition at 32 ppm [2, 16]: 17.8% | inhibition at 37 ppm [2, 16]: 31.9%

Cc1c(O)ccc(O)c1C [e, 2,3-Dimethylhydroquinone]
inhibition at 5 ppm ([1]; Pseudomonas): < 0% | inhibition at 9 ppm ([1]; Pseudomonas): 13.1% | inhibition at 18 ppm ([1]; Pseudomonas): 0.8% | inhibition at 27 ppm ([1]; Pseudomonas): < 0% | inhibition at 32 ppm ([1]; Pseudomonas): 14% | inhibition at 37 ppm ([1]; Pseudomonas): 5.4% | inhibition at 5 ppm [2, 16]: < 0% | inhibition at 9 ppm [2, 16]: < 0% | inhibition at 18 ppm [2, 16]: < 0% | inhibition at 27 ppm [2, 16]: 2.4% | inhibition at 32 ppm [2, 16]: 17.8% | inhibition at 37 ppm [2, 16]: 31.1%

Cc1cc(O)c(C)c(O)c1 [Compound 5, 2,5-Dimethylresorcinol]
inhibition at 92 ppm [1, 17]: < 0% | inhibition at 184 ppm [1, 17]: < 0% | inhibition at 368 ppm [1, 17]: < 0% | inhibition at 552 ppm [1, 17]: 9.3% | inhibition at 644 ppm [1, 17]: 14% | inhibition at 736 ppm [1, 17]: 11.1% | inhibition at 92 ppm [2, 16]: < 0% | inhibition at 184 ppm [2, 16]: 0.4% | inhibition at 368 ppm [2, 16]: < 0% | inhibition at 552 ppm [2, 16]: 10.4% | inhibition at 644 ppm [2, 16]: 20.4% | inhibition at 736 ppm [2, 16]: 55%
